Experiment [1] addresses T1, second (BD2: amino acids E352-E168) bromodomain of BRD4 (Homo sapiens, UniProt O60885).
T1 construct: protocol
Nature of the experiment: TR-FRET bromodomain binding assay, BRD4 BD2. The conditions noted are these: Ki calculated from IC50, probe Kd and probe concentration, read-out: TR-FRET Binding Ki: BRD4 (BDII_E352-M457). On the procedure:
(§1) A time-resolved fluorescence resonance energy transfer (TR-FRET) assay was used to determine the affinities of compounds of the Examples listed in Table 1 for each bromodomain of BRD4. His-tagged first (BD1: amino acids K57-E168) and second (BD2: amino acids E352-E168) bromodomains of BRD4 were expressed and purified. An Alexa647-labeled BET-inhibitor was used as the fluorescent probe in the assay.
(§2) Compound dilution series were prepared in DMSO via an approximately 3-fold serial dilution from one of the following:
(§3) or 5-fold serial dilution from one of the following:
(§4) Assay method A: 2.5 mM-800 nM
(§5) For Assay methods A, C, D, and F: Compounds were then diluted 6:100 in assay buffer (20 mM Sodium Phosphate, pH 6.0, 50 mM NaCl, 1 mM Ethylenediaminetetraacetic acid, 0.01% Triton X-100, 1 mM DL-Dithiothreitol) to yield 3× working solutions. […] of this solution were added to the assay plate to reach a final volume of 18 μL.
(§6) TR-FRET data were normalized to the means of 24 no-compound controls (“high”) and 8 controls containing 1 μM un-labeled probe (“low”). Percent inhibition was plotted as a function of compound concentration and the data were fit with the 4 parameter logistic equation to obtain IC50s. Inhibition constants (Ki) were calculated from the IC50s, probe Kd and probe concentration. Typical Z′ values were between 0.65 and 0.75.

The target in experiment [2] is T2, first (BD1: amino acids K57-E168) bromodomain of BRD4 (Homo sapiens, UniProt O60885).
T2 construct: His-tagged first (BD1: amino acids K57-E168)
The experiment can be described thus: TR-FRET bromodomain binding assay, BRD4 BD1. The conditions noted are these: Ki calculated from IC50, probe Kd and probe concentration, read-out: TR-FRET Binding Ki: BRD4 (BDI_K57-E168). As to the method:
as §1, §2, §3, §4, §5, §6

The mark [3] stands for this setting: TR-FRET assay protocol (A-G, compound concentration range).
Where [4] appears, read: TR-FRET assay protocol (D, E or G) per compound.

Where two headings read alike, the source gives them in different places.

As to `Cn1nc(-c2ccccc2Oc2ccccc2)c(-c2cccc(CN3CCOCC3)c2)cc1=O` [Example 141, 2-methyl-5-[3-(morpholin-4-ylmethyl)phenyl]-6-(2-phenoxyphenyl)pyridazin-3(2H)-one], the results for the Ki in experiment [1] (setting [3]) and in experiment [2] (setting [3]) were 297 nM and 526 nM, respectively.
Consider `CC(C)Oc1ccc(-c2cc(=O)n(C)nc2-c2ccccc2Oc2ccccc2)cc1F` [Example 111, 5-[3-fluoro-4-(propan-2-yloxy)phenyl]-2-methyl-6-(2-phenoxyphenyl)pyridazin-3(2H)-one], for which the Ki in experiment [1] (setting [3]) is 1970 nM; in experiment [2] (setting [3]) it was 2470 nM.
`Cn1nc(-c2ccccc2Oc2ccccc2)c(C2=CCNCC2)cc1=O` [Example 82, 2-methyl-6-(2-phenoxyphenyl)-5-(1,2,3,6-tetrahydropyridin-4-yl)pyridazin-3(2H)-one]: the Ki in experiment [1] (setting [3]) is 2480 nM; in experiment [2] (setting [3]) it was 4070 nM.
The corresponding values for `CCOc1cccc(-c2cc(=O)n(C)nc2-c2ccccc2Oc2ccccc2)c1F` [Example 136, 5-(3-ethoxy-2-fluorophenyl)-2-methyl-6-(2-phenoxyphenyl)pyridazin-3(2H)-one] are 6700 nM and 4330 nM.
The corresponding values for `CCOc1cc(=O)n(C)cc1-c1cc(NS(=O)(=O)C[C@]23CC[C@H](CC2=O)C3(C)C)ccc1Oc1ccc(F)cc1F` [Example 310, N-[4-(2,4-difluorophenoxy)-3-(4-ethoxy-1-methyl-6-oxo-1,6-dihydropyridin-3-yl)phenyl]-1-[(1S,4R)-7,7-dimethyl-2-oxobicyclo[2.2.1]hept-1-yl]methanesulfonamide] are 38.9 nM and 200 nM.
For the compound `Cc1c(-c2cc(=O)n(C)nc2-c2ccccc2Oc2ccccc2)cnn1C` [Example 204, 5-(1,5-dimethyl-1H-pyrazol-4-yl)-2-methyl-6-(2-phenoxyphenyl)pyridazin-3(2H)-one], the Ki in experiment [1] (setting [3]) is 1960 nM; in experiment [2] (setting [3]), 1020 nM.
For `COC(C)c1cccc(-c2cc(=O)n(C)nc2-c2ccccc2Oc2ccccc2)c1` (stereo not shown) [Example 134, 5-[3-(1-methoxyethyl)phenyl]-2-methyl-6-(2-phenoxyphenyl)pyridazin-3(2H)-one] the same measures were 4060 nM and 4320 nM.
As for `Cn1nc(-c2ccccc2Oc2ccccc2)c(C2=CCN(S(C)(=O)=O)CC2)cc1=O` [Example 85, 2-methyl-5-[1-(methylsulfonyl)-1,2,3,6-tetrahydropyridin-4-yl]-6-(2-phenoxyphenyl)pyridazin-3(2H)-one], the Ki is 791 nM in experiment [1] (setting [3]) and 1610 nM in experiment [2] (setting [3]).
For `COc1ccc(-c2cc(=O)n(C)nc2-c2ccccc2Oc2ccccc2)cn1` [Example 116, 5-(6-methoxypyridin-3-yl)-2-methyl-6-(2-phenoxyphenyl)pyridazin-3(2H)-one] the same measures were 553 nM and 1050 nM.
`CN(C)C(=O)c1ccc(-c2cc(=O)n(C)nc2-c2ccccc2Oc2ccccc2)cc1` [Example 108, N,N-dimethyl-4-[1-methyl-6-oxo-3-(2-phenoxyphenyl)-1,6-dihydropyridazin-4-yl]benzamide]: the Ki is 327 nM in experiment [1] (setting [3]) and 410 nM in experiment [2] (setting [3]).
Regarding `Cn1nc(-c2ccccc2Oc2ccccc2)c(-c2ccc(C(O)C3CCCC3)cc2)cc1=O` (stereo not shown) [Example 74, 5-{4-[cyclopentyl(hydroxy)methyl]phenyl}-2-methyl-6-(2-phenoxyphenyl)pyridazin-3(2H)-one], the Ki is 1050 nM in experiment [1] (setting [3]) and 632 nM in experiment [2] (setting [3]).
With `CN(C)c1cccc(-c2cc(=O)n(C)nc2-c2ccccc2Oc2ccccc2)c1` [Example 209, 5-[3-(dimethylamino)phenyl]-2-methyl-6-(2-phenoxyphenyl)pyridazin-3(2H)-one], the values for the Ki in experiment [1] (setting [3]) and in experiment [2] (setting [3]) were 8480 nM and over 5490 nM, respectively.
On to `Cn1nc(-c2ccccc2Oc2ccccc2)c(-c2cccc(C(=O)N3CCCCC3)c2)cc1=O` [Example 157, 2-methyl-6-(2-phenoxyphenyl)-5-[3-(piperidin-1-ylcarbonyl)phenyl]pyridazin-3(2H)-one], for which the results for the Ki in experiment [1] (setting [3]) and in experiment [2] (setting [3]) were 4750 nM and 5510 nM, respectively.
Regarding `Cn1nc(-c2ccccc2-c2cccc(C#N)c2)ccc1=O` [Example 53, 2′-(1-methyl-6-oxo-1,6-dihydropyridazin-3-yl)biphenyl-3-carbonitrile], the Ki was over 14300 nM in experiment [1] (setting [3]) and over 11500 nM in experiment [2] (setting [3]).
For `COc1cc(=O)n(C)nc1-c1ccccc1OCC1CCOCC1` [Example 47, 5-methoxy-2-methyl-6-[2-(tetrahydro-2H-pyran-4-ylmethoxy)phenyl]pyridazin-3(2H)-one] the same measures were over 22200 nM and 5280 nM.
In the case of `Cn1nc(-c2ccccc2Oc2ccccc2)c(-c2cccc(S(=O)(=O)N3CCCC3)c2)cc1=O` [Example 156, 2-methyl-6-(2-phenoxyphenyl)-5-[3-(pyrrolidin-1-ylsulfonyl)phenyl]pyridazin-3(2H)-one], the Ki in experiment [1] (setting [3]) is 13100 nM; in experiment [2] (setting [3]) it was over 13000 nM.
The corresponding values for `COC(=O)COc1cc(=O)n(C)nc1-c1ccccc1Oc1ccccc1` [Example 38, methyl{[1-methyl-6-oxo-3-(2-phenoxyphenyl)-1,6-dihydropyridazin-4-yl]oxy}acetate] are 6830 nM and 6350 nM.
As for `CCOc1cc(=O)n(C)cc1-c1cc(NS(=O)(=O)c2ccc3ccccc3c2)ccc1Oc1ccc(F)cc1F` [Example 418, N-[4-(2,4-difluorophenoxy)-3-(4-ethoxy-1-methyl-6-oxo-1,6-dihydropyridin-3-yl)phenyl]naphthalene-2-sulfonamide], the figures for the Ki in experiment [1] (setting [4]) and in experiment [2] (setting [4]) were 165 nM and 362 nM, respectively.
With `Cn1nc(-c2ccccc2Oc2ccccn2)ccc1=O` [Example 6, 2-methyl-6-[2-(pyridin-2-yloxy)phenyl]pyridazin-3(2H)-one], the Ki is 3170 nM in experiment [1] (setting [3]) and 4080 nM in experiment [2] (setting [3]).
The corresponding values for `CCOc1cc(=O)n(C)cc1-c1cc(NC(=O)c2ccc(OC(C)C)cc2)ccc1Oc1ccc(F)cc1F` [Example 301, N-[4-(2,4-difluorophenoxy)-3-(4-ethoxy-1-methyl-6-oxo-1,6-dihydropyridin-3-yl)phenyl]-4-(propan-2-yloxy)benzamide] are 55.6 nM and 61.8 nM.
For `Cn1nc(-c2ccccc2OC2CCCC2)ccc1=O` [Example 4, 6-[2-(cyclopentyloxy)phenyl]-2-methylpyridazin-3(2H)-one] the same measures were over 4080 nM and 1340 nM.
For the compound `Cc1n[nH]c(C)c1-c1cc(=O)n(C)nc1-c1ccccc1Oc1ccccc1` [Example 115, 5-(3,5-dimethyl-1H-pyrazol-4-yl)-2-methyl-6-(2-phenoxyphenyl)pyridazin-3(2H)-one], the Ki in experiment [1] (setting [3]) was 6940 nM; in experiment [2] (setting [3]) it was 11100 nM.
On to `Cn1nc(-c2ccccc2Oc2ccccc2)c(-c2cccc(C(=O)N3CCSCC3)c2)cc1=O` [Example 142, 2-methyl-6-(2-phenoxyphenyl)-5-[3-(thiomorpholin-4-ylcarbonyl)phenyl]pyridazin-3(2H)-one], for which the values for the inhibitory constant (Ki) in experiment [1] (setting [3]) and in experiment [2] (setting [3]) were 1730 nM and 2400 nM, respectively.
The corresponding values for `Cn1nc(-c2ccccc2Oc2ccc(C(F)(F)F)cc2)ccc1=O` [Example 7, 2-methyl-6-{2-[4-(trifluoromethyl)phenoxy]phenyl}pyridazin-3(2H)-one] are 10400 nM and 1970 nM.
For the compound `CNC(=O)c1cccc(-c2cc(=O)n(C)nc2-c2ccccc2Oc2ccccc2)c1` [Example 128, N-methyl-3-[1-methyl-6-oxo-3-(2-phenoxyphenyl)-1,6-dihydropyridazin-4-yl]benzamide], the Ki is 376 nM in experiment [1] (setting [3]) and 1640 nM in experiment [2] (setting [3]).
As for `Cn1nc(-c2ccccc2Oc2ccccc2)c(-c2ccc(C(=O)NC3CC3)cc2)cc1=O` [Example 114, N-cyclopropyl-4-[1-methyl-6-oxo-3-(2-phenoxyphenyl)-1,6-dihydropyridazin-4-yl]benzamide], the results for the Ki in experiment [1] (setting [3]) and in experiment [2] (setting [3]) were 184 nM and 328 nM, respectively.
As to `CC(C)Oc1ncccc1-c1cc(=O)n(C)nc1-c1ccccc1Oc1ccccc1` [Example 130, 2-methyl-6-(2-phenoxyphenyl)-5-[2-(propan-2-yloxy)pyridin-3-yl]pyridazin-3(2H)-one], the Ki was 17100 nM in experiment [1] (setting [3]) and over 13000 nM in experiment [2] (setting [3]).
On to `CC(=O)c1ccc(F)c(-c2cc(=O)n(C)nc2-c2ccccc2Oc2ccccc2)c1` [Example 132, 5-(5-acetyl-2-fluorophenyl)-2-methyl-6-(2-phenoxyphenyl)pyridazin-3(2H)-one], for which the Ki in experiment [1] (setting [3]) is 8050 nM; in experiment [2] (setting [3]), over 13000 nM.
For `Cn1cc(-c2cc(Nc3ccccn3)ccc2Oc2ccccc2)ccc1=O` [Example 254, 1-methyl-5-[2-phenoxy-5-(pyridin-2-ylamino)phenyl]pyridin-2(1H)-one] the same measures were 3270 nM and 324 nM.

The Ki is a measure of affinity in units of concentration, obtained from inhibition or displacement.

These data come from patent US9561231B2 (AbbVie Inc., priority 2012, dated 2017).
